Experimental data published in US8173682B2, “Substituted pyridones as inhibitors of poly(ADP-ribose) polymerase (PARP)” (Aventis Pharmaceuticals Inc., priority 2004, dated 2012).
Where a name gives a salt, the structure may show the parent alone.

Biological target: T1, recombinant human PARP (PARP1) (Homo sapiens, UniProt P09874)
T1 construct: Full length human PARP (PARP1) is assembled from PCR fragments; His6 tag with TEV site, from the pFastBac-HTb vector (own knowledge of the vector); made in house; host or cells: insect cells, baculovirus (Bac-to-Bac, Gibco-BRL)
T1 sequence (P09874 whole entry, the tested form may be a part): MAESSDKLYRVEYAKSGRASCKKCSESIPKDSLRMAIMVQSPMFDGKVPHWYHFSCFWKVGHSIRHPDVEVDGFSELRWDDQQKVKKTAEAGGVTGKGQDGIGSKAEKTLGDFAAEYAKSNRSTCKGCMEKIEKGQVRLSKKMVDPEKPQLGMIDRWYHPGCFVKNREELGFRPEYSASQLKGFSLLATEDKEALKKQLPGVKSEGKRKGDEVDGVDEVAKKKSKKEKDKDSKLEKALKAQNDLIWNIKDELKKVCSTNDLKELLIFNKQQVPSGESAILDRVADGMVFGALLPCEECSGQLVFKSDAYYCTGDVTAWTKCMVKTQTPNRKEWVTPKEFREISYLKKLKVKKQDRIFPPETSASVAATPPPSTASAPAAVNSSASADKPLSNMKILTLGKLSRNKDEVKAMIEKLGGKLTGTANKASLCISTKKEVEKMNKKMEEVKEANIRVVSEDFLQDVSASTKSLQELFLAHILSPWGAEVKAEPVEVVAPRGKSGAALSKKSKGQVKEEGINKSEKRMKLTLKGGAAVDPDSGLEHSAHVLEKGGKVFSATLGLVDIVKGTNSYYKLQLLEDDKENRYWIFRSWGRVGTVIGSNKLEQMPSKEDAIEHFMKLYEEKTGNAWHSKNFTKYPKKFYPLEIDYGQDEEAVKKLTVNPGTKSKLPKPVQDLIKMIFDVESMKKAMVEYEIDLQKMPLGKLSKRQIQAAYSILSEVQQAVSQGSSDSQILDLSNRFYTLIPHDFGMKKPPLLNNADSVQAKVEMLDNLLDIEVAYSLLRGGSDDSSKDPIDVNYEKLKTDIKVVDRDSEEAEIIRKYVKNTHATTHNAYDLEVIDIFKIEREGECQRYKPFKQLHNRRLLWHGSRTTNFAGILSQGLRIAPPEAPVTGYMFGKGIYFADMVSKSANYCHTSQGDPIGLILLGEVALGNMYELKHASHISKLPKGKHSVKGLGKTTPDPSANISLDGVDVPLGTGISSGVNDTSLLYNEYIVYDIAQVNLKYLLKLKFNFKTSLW
Test: PARP enzyme assay, Method A (radioactivity or 'ELISA' enzyme assay with partially purified enzyme)
Type: biochemical
Conditions: recombinant human PARP preparation, radioactive or ELISA enzyme assay
Text: Two different methods are employed in determining the activity of the compounds of this invention in inhibiting the activity of PARP enzyme, designated as Method A and Method B respectively as set forth below.
Method A: Cloning and Expression, and Partial Purification of Recombinant Human PARP:
Full length human PARP (PARP1) is assembled from PCR fragments of a clone from a human brain cDNA library and two Incyte clones. The PARP gene (3046 bp) is sub-cloned into pFastBac-HTb vector to give PARP-pFastBac-HTb and the sequence of this clone is verified. PARP-pFastBac-HTb is expressed to obtain protein using the Bac-to-Bac expression protocol from Gibco-BRL. The recombinant virus generated is used to scale up the material for purification.
Cell pellets from cell broth of cells expressing PARP are treated with a cocktail of protease inhibitors and lysed by 4 freeze-thaw cycles. The material is suspended in 10 mM HEPES/0.1M NaCl/pH 7.2, stirred, and then centrifuged. A 40%-70% ammonium sulfate cut of protein pellet is obtained from the supernatant. The pellet is solubilized in 10 mM HEPES/pH 7.2 and centrifuged. The supernatant buffer is exchanged to 10 mM HEPES/pH 7.2/0.1M NaCl/25% glycerol by dialysis or with a desalting column. The enzyme preparation is stored at −20° C. until use.
The compounds of this invention are then tested with this enzyme preparation using either the radioactive enzyme assay or by the “ELISA” enzyme assay as set forth below.
Radioactivity Enzyme Assay:
Incorporation of radioactivity from labeled NAD into acid-precipitated protein is measured. The reaction mixture (volume 100 μL or 50 μL, in a test-tube or 96-well plate) contained 100 μg/mL calf thymus DNA (sonicated), 100 μg/mL histones, 100 mM Tris (pH 8.0), 1.0 mM DTT, 10 mM MgCl2, NAD (200 μM, 0.65 microcurie/mL), and varying amounts of enzyme. The reaction was incubated for 10 min at 37° C. or at room temperature for 60 min. The reaction was stopped and protein precipitated by addition of ice-cold trichloroacetic acid (TCA; 10% or 20% aqueous w/v). After brief storage in ice or at 4° C. for 2 hrs, the reaction mixture is filtered under vacuum through a glass fiber filter (2.5 cm disc, or 96-well filter plate). After washing with TCA and ethanol, the filter is dried and counted for tritium CPM after addition of scintillation fluid.
Incorporation of biotin-NAD into histone coated on plate is measured. A 96-well protein-binding EIA plate is coated with histone and blocked with bovine serum albumin. The reaction mixture (50 μL) contained DNA, buffer, enzyme, (test compound), and 250 μM of NAD and 5 μL of biotin-NAD (Trevigen). After reaction at room temperature the wells are washed and treated with Extravidin (Sigma). After incubation and washing color is developed with the peroxidase substrate TMB (Sigma). The TMB reaction is quenched with 2M sulfuric acid and the absorbance at 450 nm is read.

SMILES | IC50
CCc1cc(-c2ccc(S(=O)(=O)NCc3cccnc3)o2)c(C)[nH]c1=O [Example 55, 5-(5-Ethyl-2-methyl-6-oxo-1,6-dihydropyridin-3-yl)furan-2-sulfonic acid (pyridin-3-yl)methylamide hydrochloride] | 0.22 µM
CCc1cc(-c2n[nH]c(C)n2)c(C)[nH]c1=O [Example 21, 3-Ethyl-6-methyl-5-(5-methyl-2H-1,2,4-triazol-3-yl)-1H-pyridin-2-one] | 0.17 µM
CCc1cc(-c2ccc(CNCCc3cnc[nH]3)s2)c(C)[nH]c1=O [Example 155, 3-Ethyl-5-(5-{[(2-(3H-imidazol-4-yl)ethylamino]methyl}thiophen-2-yl)-6-methyl-1H-pyridin-2-one dihydrochloride] | 0.71 µM
CCc1cc(-c2ccc(S(=O)(=O)N3CCC(C(=O)c4ccccc4)CC3)s2)c(C)[nH]c1=O [Example 108, 5-[5-(4-Benzoylpiperidine-1-sulfonyl)thiophen-2-yl]-3-ethyl-6-methyl-1H-pyridin-2-one] | 1 µM
CCc1cc(-c2ccc(S(=O)(=O)NCc3ccc(N(C)C)nc3)s2)c(C)[nH]c1=O [Example 78, 5-(5-Ethyl-2-methyl-6-oxo-1,6-dihydropyridin-3-yl)thiophene-2-sulfonic acid [(6-dimethylaminopyridin-3-yl)methyl]amide hydrochloride] | 0.2 µM
CCc1cc(-c2ccc(S(=O)(=O)NCc3cncc(C)n3)s2)c(C)[nH]c1=O [Example 73, 5-[5-Ethyl-2-methyl-6-oxo-1,6-dihydropyridin-3-yl]thiophene-2-sulfonic acid (6-methylpyrazin-2-yl)methylamide hydrochloride] | 0.42 µM
CCc1cc(-c2ccc(CNCc3cc(F)cc(F)c3)s2)c(C)[nH]c1=O [Example 158, 5-[5-(3,5-Difluorobenzylaminomethyl)thiophen-2-yl]-3-ethyl-6-methyl-1H-pyridin-2-one hydrochloride] | 0.51 µM
CCc1cc(-c2ccc(CNCc3ccccc3)s2)c(C)[nH]c1=O [Example 157, 5-[5-(Benzylamino-methyl)-thiophen-2-yl]-3-ethyl-6-methyl-1H-pyridin-2-one hydrochloride] | 0.6 µM
CCc1cc(-c2ccc(CNCc3ccccc3OC)s2)c(C)[nH]c1=O [Example 187, 3-Ethyl-5-{5-[(2-methoxybenzylamino)methyl]thiophen-2-yl}-6-methyl-1H-pyridin-2-one hydrochloride] | 0.4 µM
CCc1cc(-c2ccc(CNCCc3ccccn3)s2)c(C)[nH]c1=O [Example 141, 3-Ethyl-6-methyl-5-{5-[(2-pyridin-2-ylethylamino)methyl]thiophen-2-yl}-1H-pyridin-2-one dihydrochloride] | 0.54 µM
CCc1cc(-c2nc(C)nn2C)c(C)[nH]c1=O [Example 20, 5-(2,5-Dimethyl-2H-1,2,4-triazol-3-yl)-3-ethyl-6-methyl-1H-pyridin-2-one] | 1.1 µM
CCc1cc(-c2ncnn2C)c(C)[nH]c1=O [Example 17, 3-Ethyl-6-methyl-5-(2-methyl-2H-1,2,4-triazol-3-yl)-1H-pyridin-2-one] | 1.7 µM
CCc1cc(-c2ccc(CNCc3ccccn3)s2)c(C)[nH]c1=O [Example 195, 3-Ethyl-6-methyl-5-(5-{[(pyridin-2-ylmethyl)amino]methyl}thiophen-2-yl)-1H-pyridin-2-one hydrochloride] | 0.67 µM
CCc1cc(-c2ccc(CNCc3ccc(C)cc3)s2)c(C)[nH]c1=O [Example 166, 5-{5-[(4-Methylbenzylamino)methyl]thiophen-2-y}]-3-ethyl-6-methyl-1H-pyridin-2-one hydrochloride] | 0.68 µM
CCc1cc(-c2ccc(CNCc3cccs3)s2)c(C)[nH]c1=O [Example 170, 3-Ethyl-6-methyl-5-(5-{[(thiophen-2-ylmethyl)amino]methyl}-thiophen-2-yl)-1H-pyridin-2-one hydrochloride] | 0.28 µM
CCc1cc(-c2ncno2)c(C)[nH]c1=O [Example 18, 3-Ethyl-6-methyl-5-(1,2,4-oxadiazol-5-yl)-1H-pyridin-2-one] | 0.65 µM

Now from value to compound:

IC50 | SMILES
0.62 µM | CCc1cc(-c2ccc(CNCCC3=CCCCC3)s2)c(C)[nH]c1=O [Example 144, 5-{5-[(2-Cyclohex-1-enyl-ethylamino)-methyl]thiophen-2-yl}-3-ethyl-6-methyl-1H-pyridin-2-one hydrochloride]
0.64 µM | CCc1cc(-c2ccc(CNCC3CCN(Cc4cc(F)cc(F)c4)CC3)s2)c(C)[nH]c1=O [Example 140, 5-(5-{[1-(3,5-Difluoro-benzyl)-)-piperidin-4-ylmethyl]-amino}methyl-thiophen-2-yl)-3-ethyl-6-methyl-1H-pyridin-2-one hydrochloride]
2.2 µM | CCc1cc(-c2ccc(S(=O)(=O)N3CCN(Cc4ccccc4)CC3)s2)c(C)[nH]c1=O [Example 100, 5-[5-(4-Benzylpiperazine-1-sulfonyl)thiophen-2-yl]-3-ethyl-6-methyl-1H-pyridin-2-one hydrochloride]
0.22 µM | CCc1cc(-c2ccc(CN3CCC(F)C3)s2)c(C)[nH]c1=O (stereo not drawn) [Example 173, 5-{5-[(3-Fluoropyrrolidin-1-ylmethyl)(thiophen-2-yl)-3-ethyl-6-methyl-1H-pyridin-2-one hydrochloride]
0.49 µM | CCc1cc(-c2ccc(CNC(=O)CN(C)C)s2)c(C)[nH]c1=O [Example 177, 2-Dimethylamino-N-[5-(5-ethyl-2-methyl-6-oxo-1,6-dihydropyridin-3-yl)thiophen-2-ylmethyl]acetamide hydrochloride]
3.7 µM | CCc1cc(-c2ccc(S(=O)(=O)NCCC3CCCN3C)s2)c(C)[nH]c1=O (stereo not drawn) [Example 36, 5-(5-Ethyl-2-methyl-6-oxo-1,6-dihydropyridin-3-yl)thiophene-2-sulfonic Acid [2-(1-methylpyrrolidin-2-yl)ethyl]amide hydrochloride]
1.8 µM | CCc1cc(-c2ccc(CN3CCC(N4CCCCC4)CC3)s2)c(C)[nH]c1=O [Example 129, 5-(5-[1,4′]Bipiperidinyl-1′-ylmethyl-thiophen-2-yl)-3-ethyl-6-methyl-1H-pyridin-2-one dihydrochloride]
0.16 µM | CCc1cc(-c2ccc(S(=O)(=O)NCCN3CCCC3)o2)c(C)[nH]c1=O [Example 53, 5-(5-Ethyl-2-methyl-6-oxo-1,6-dihydropyridin-3-yl)furan-2-sulfonic acid (2-pyrrolidin-1-yl)ethylamide hydrochloride]
0.43 µM | CCc1cc(-c2ccc(S(=O)(=O)N3CCN(CCN4CCCC4)CC3)s2)c(C)[nH]c1=O [Example 61, 3-Ethyl-6-methyl-5-{5-[4-(2-pyrrolidin-1-yl)ethylpiperazine-1-sulfonyl]thiophen-2-yl}-1H-pyridin-2-one dihydrochloride]
0.53 µM | CCc1cc(-c2ccc(CNCCN3CCCC3)s2)c(C)[nH]c1=O [Example 154, 3-Ethyl-6-methyl-5-{5-{[(2-pyrrolidin-1-ylethylamino)-methyl]thiophen-2-yl)-1H-pyridin-2-one dihydrochloride]
1.7 µM | CCc1cc(-c2ccc(CN3CCC(N4CCCC4)CC3)s2)c(C)[nH]c1=O [Example 160, 3-Ethyl-6-methyl-5-[5-(4-pyrrolidin-1-ylpiperidin-1-ylmethyl)-thiophen-2-yl]1-1H-pyridin-2-one dihydrochloride]
1.3 µM | CCc1cc(-c2ccc(S(=O)(=O)N3CCN(C)CC3)s2)c(C)[nH]c1=O [Example 92, 3-Ethyl-6-methyl-5-[5-(4-methylpiperazine-1-sulfonyl)thiophen-2-yl]-1H-pyridin-2-one]
2.8 µM | CCc1cc(-c2ccc(S(=O)(=O)NC3CCN(Cc4ncc[nH]4)CC3)s2)c(C)[nH]c1=O [Example 83, 5-[5-Ethyl-2-methyl-6-oxo-1,6-dihydropyridin-3-yl]thiophene-2-sulfonic acid (1-imidazol-2-yl)methyl(piperidin-4-yl)]amide dihydrochloride]
4.5 µM | CCc1cc(-c2ccc(S(=O)(=O)N3CCOCC3)s2)c(C)[nH]c1=O [Example 86, 3-Ethyl-6-methyl-5-[5-(morpholine-4-sulfonyl)thiophen-2-yl]-1H-pyridin-2-one]
